Experimental data taken from publication PMC6520522, “In vitro and in vivo Metabolism of a Potent Inhibitor of Soluble Epoxide Hydrolase, 1-(1-Propionylpiperidin-4-yl)-3-(4-(trifluoromethoxy)phenyl)urea” (Frontiers in Pharmacology, 2019).

Experiments:
recombinant human sEH = biological target: T1, recombinant human sEH (Homo sapiens, UniProt P34913); experiment: sEH inhibition potency, CMNPC fluorescent assay; type: biochemical
T1 sequence (P34913 1-555): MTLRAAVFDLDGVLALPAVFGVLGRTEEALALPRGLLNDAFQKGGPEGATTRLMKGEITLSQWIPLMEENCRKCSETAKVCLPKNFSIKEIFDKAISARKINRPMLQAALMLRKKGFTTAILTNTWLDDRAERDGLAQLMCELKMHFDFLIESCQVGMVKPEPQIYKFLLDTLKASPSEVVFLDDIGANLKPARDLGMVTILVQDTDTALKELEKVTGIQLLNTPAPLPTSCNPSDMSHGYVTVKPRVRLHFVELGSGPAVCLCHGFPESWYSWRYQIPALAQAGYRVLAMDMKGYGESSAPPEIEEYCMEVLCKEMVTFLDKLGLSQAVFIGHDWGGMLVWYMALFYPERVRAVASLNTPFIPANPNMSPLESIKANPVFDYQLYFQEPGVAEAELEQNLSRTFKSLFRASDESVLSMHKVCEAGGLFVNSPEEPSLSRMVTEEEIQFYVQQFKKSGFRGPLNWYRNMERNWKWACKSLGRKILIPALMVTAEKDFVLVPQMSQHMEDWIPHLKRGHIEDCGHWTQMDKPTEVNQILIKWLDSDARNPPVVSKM
Method: Briefly, recombinant human sEH [1 nM in sodium phosphate buffer (0.1 M, pH = 7.4, 0.1 mg/mL BSA)] was incubated with each analyte (0.1 < [I]final < 10,000 nM) at 30°C for 5 min. Then, the reaction was started with the addition to CMNPC ([S]final = 5 μM). The reaction was monitored kinetically for 10 min at 30°C. The formation of the fluorescent product 6-methoxynaphthaldehyde (λexcitation = 330 nm, λemission = 465 nm, 30°C) was measured every 30 s. IC50 values were determined by regression of the remaining activity in function of the inhibitor concentrations. Assays were run in triplicate and IC50 values are the averages of three replicates.

[1] = Feces levels of TPPU and metabolites after single oral dose in rats; type: in vivo; details: rat, single oral dose 10 mg/kg TPPU; for concentration at 8 h: 8h post dose; for concentration at 8 h / concentration at 12 h / concentration at 24 h / concentration at 48 h / concentration at 72 h: n = 3; for concentration at 12 h: 12h post dose; for concentration at 24 h: 24h post dose; for concentration at 48 h: 48h post dose; for concentration at 72 h: 72h post dose
[2] = Urine levels of TPPU and metabolites after single oral dose in rats; type: in vivo; details: rat, single oral dose 10 mg/kg TPPU; for Cmax: male, Sprague Dawley, urine
Method: (§1) Healthy male rats (Sprague Dawley, n = 4) were housed in temperature-controlled housing with ad libitum standard chow and drinking water. Each rat received TPPU (dissolved in 0.5 mL PEG400) at a dose of 10 mg/kg by oral gavage in order to generate significant amounts of metabolites while corresponding to previous efficacious concentration doses. Both blood and urine samples were collected. Blood samples (10 μL) at time points of 0 (before dosing), 0.25, 0.5, 1, 2, 4, 8, 12, 24, 48, and 72 h post dose were collected from the tail vein. Collected blood samples were transferred to Eppendorf tubes containing 90 μL of EDTA solution (0.1% EDTA and 0.1% acetic acid) and were immediately shaken to avoid blood coagulation. The urine and feces samples were passively collected at the time points of 8, 12, 24, 48, and 72 h post dose. TAPU (10 μL) of 1 μM in methanol was added in each blood and urine sample as an internal standard solution. The blood sample extraction was performed with 200 μL ethyl acetate by liquid-liquid extraction. The representative urine samples were subjected to protein precipitation prior to analysis of TPPU and Phase I metabolites. Briefly, urine (10 μL) was treated with 50 μL acetonitrile. After vortex mixing and centrifugation, the supernatant was collected. The feces samples (50–100 mg) were extracted using 600 μL extraction solution (MeOH: EA = 1:1). The mixtures were kept at −20°C overnight to give efficient extraction of TPPU and its metabolites. On day 2, after vortex mixing and centrifugation, the supernatant was collected. The remaining residue was extracted an additional time with 300 μL extraction solution, and the supernatant was combined after centrifugation. The collected supernatants were dried using a speed vacuum concentrator and reconstituted in 50 μL of 100 nM CUDA solution in methanol. In addition, urine (10 μL) was diluted with water (50 μL) and then subjected to analysis of glucuronide or sulfate conjugates.
(§2) LC-MS/MS analysis was conducted on an Agilent SL 1200 series LC system (Agilent, Palo Alto, CA) connected to a 4,000 Qtrap mass spectrometer (Applied Biosystems Instrument Corporation, Foster City, CA) with Turbo V ion source. Liquid chromatography was performed on a Kinetex® C18 column (100 × 2.1 mm, 1.7 μm). Three μL solution was injected onto the column held at 45°C for analysis. Mobile phase A and B were water with 0.1% acetic acid and acetonitrile with 0.1% acetic acid, respectively. The LC flow rate was 300 μL/min.
(§3) The mass spectrometer was operated in both negative and positive modes. Three different scan types were employed to perform mass spectrometry analysis, including product ion scan, precursor ion scan (optimized parameters in Table S4) and MRM scan (optimized parameters in Table S5).

[3] = In vitro metabolism of TPPU in liver S9 fractions; type: in vitro ADME, human, monkey, dog, rat, mouse
Method: The in vitro study of TPPU metabolism was conducted following previous methods as described (Watanabe and Hammock, [2001]). Briefly, 1 μL of TPPU (1 mM in DMSO; [TPPU]final = 10 μM) was mixed with 94 μL of diluted liver S9 fractions (final, 0.05 mg protein/mL) from human, monkey, dog, rat, and mouse and incubations were conducted in a 10 mL glass vial. After 5 min preincubation at 37°C, the reaction was initiated by adding 5 μL of NADPH regeneration solution. The NADPH regeneration solution was prepared by mixing 50 μL of NADP^+ (100 mM), 50 μL of G6P (500 mM), 50 μL of G6PDH (100 Unit/mL), and 100 μL of sodium phosphate buffer. Incubation without NADPH regeneration solution was used as control. Reactions were kept for 2 h and terminated by addition of 100 μL of ice-cold methanol containing CUDA (200 nM) as an internal standard. The mixture was followed by vigorous mixing for 2 min and centrifuging at 10,000^*g for 10 min. Each supernatant was transferred to an HPLC vial and kept under 4°C until LC-MS analysis.
as §2

[4] = Blood pharmacokinetics of TPPU and its metabolites after single oral dose in rats; type: in vivo
Method: as §1, §2, §3

[5] = Urine levels of TPPU and metabolites after single oral dose in rats; type: in vivo; details: male, Sprague Dawley, rat, single oral dose 10 mg/kg TPPU, n = 3; for concentration at 8 h: 8h post dose; for concentration at 12 h: 12h post dose; for concentration at 24 h: 24h post dose; for concentration at 48 h: 48h post dose; for concentration at 72 h: 72h post dose

CC(O)C(=O)N1CCC(NC(=O)Nc2ccc(OC(F)(F)F)cc2)CC1 (centres unmarked) [Compound M1, 1-(1-(2-hydroxypropanoyl)piperidin-4-yl)-3-(4-(trifluoromethoxy)phenyl)urea]
IC50 (recombinant human sEH; CMNPC fluorescent assay, recombinant human sEH 1 nM, 30°C, average of three replicates, read-out: HsEH IC50): 3 ± 0.5 nM
fold more potent than M2 toward human sEH (recombinant human sEH; ratio of IC50 values, versus M2): ~ 5 fold
concentration at 8 h ([1]; male, Sprague Dawley, feces): 3.7 ng/mL
concentration at 12 h ([1]; male, Sprague Dawley, feces): 5.7 ng/mL
concentration at 24 h ([1]; male, Sprague Dawley, feces): 1.1 ng/mL
concentration at 48 h ([1]; male, Sprague Dawley, feces): 8.8 ng/mL
concentration at 72 h ([1]; male, Sprague Dawley, feces): 4.4 ng/mL
Cmax [2]: 12000 ng/mL
time of Cmax in urine [2]: 12 h
formation of metabolite in liver S9 fractions ([3]; with NADPH regeneration system, rat, mouse, dog, monkey, human, 2 h): found in all species tested
formation of metabolite in liver S9 fractions in the absence of a NADPH generation system ([3]; without NADPH, liver S9 fractions (Figure S1: human)): failed to be detected
half-life ([4]; male, Sprague Dawley, rat, whole blood, po, 10 mg/kg, oral gavage 10 mg/kg, n = 4, read-out: T1/2 (half-life) (converted)): ~20 h
T1/2 (half-life) ([4]; rat blood, oral gavage 10 mg/kg, n = 4, 10 mg/kg): 20 ± 3 h
share of the total TPPU-related exposure in blood ([4]; rat blood, single oral dose of TPPU, over 72 h): ~ 9.6%
concentration at 8 h [5]: 8 ng/mL
concentration at 12 h [5]: 1.2 ng/mL
concentration at 24 h [5]: 5.6 ng/mL
concentration at 48 h [5]: 3.6 ng/mL
concentration at 72 h [5]: 2.1 ng/mL

CCC(=O)N1CCC(NC(=O)Nc2ccc(OC(F)(F)F)cc2)CC1 [TPPU, 1-(1-propionylpiperidin-4-yl)-3-(4-(trifluoromethoxy)phenyl)urea]
concentration at 8 h ([1]; male, Sprague Dawley, feces): 1.8 ng/mL
concentration at 12 h ([1]; male, Sprague Dawley, feces): 2.4 ng/mL
concentration at 24 h ([1]; male, Sprague Dawley, feces): 1.9 ng/mL
concentration at 48 h ([1]; male, Sprague Dawley, feces): 7 ng/mL
concentration at 72 h ([1]; male, Sprague Dawley, feces): 1.5 ng/mL
Cmax ([1]; male, Sprague Dawley, feces): 24000 ng/mL
time of Cmax in feces [1]: 12 h
Cmax [2]: 5700 ng/mL
time of Cmax in urine [2]: 8 h
TPPU remaining after incubation with liver S9 fractions ([3]; 2 h of incubation, TPPU 10 μM, 0.05 mg protein/mL): over 90%
share of the TPPU nucleus in the blood ([4]; rat blood, oral 10 mg/kg TPPU): over 90%
concentration at 8 h [5]: 5.7 ng/mL
concentration at 12 h [5]: 5.1 ng/mL
concentration at 24 h [5]: 1.6 ng/mL
concentration at 48 h [5]: 4.6 ng/mL
concentration at 72 h [5]: 1.1 ng/mL
